Literature values in patent US7977452B2, “Janus dendrimers and dendrons” (Dendritic Nanotechnologies, Inc., priority 2005, dated 2011).

What was measured:
[1] = in vivo
Mouse [2] = test system: Mouse
Mouse [3] = test system: Mouse; remark: listed apart in the source
[4] = Gd-chelate PAMAM dendrimer contrast agent

Compound | Excretion [1] | Effective dose (ED) (Mouse [2]) [mmol·kg] | LD50 (Mouse [3]) [mmol·kg] | Size [4] [nm]
O=C(O)CN(CCN(CC(=O)O)CC(=O)O)CCN(CC(=O)O)CC(=O)O [DTPA, diethylenetriaminepentaacetic acid] | Kidney | – | – | –
CNC[C@H](O)[C@@H](O)[C@H](O)[C@H](O)CO.CNC[C@H](O)[C@@H](O)[C@H](O)[C@H](O)CO.O=C([O-])CN(CCN(CC(=O)[O-])CC(=O)O)CCN(CC(=O)[O-])CC(=O)O.[Gd+3] [(NMG)2-Gd-DTPA] | – | 0.1 | 8.2 | –
CNC(=O)CN(CCN(CCN(CC(=O)[O-])CC(=O)NC)CC(=O)[O-])CC(=O)[O-].[Gd+3] [Gd-DTPA-BMA] | – | 0.1 | 34.4 | –
CC(O)CN1CCN(CC(=O)[O-])CCN(CC(=O)[O-])CCN(CC(=O)[O-])CC1.[Gd+3] (stereo not drawn) [Gd-HP-DO3A] | – | 0.1 | 12.0 | –
O=C([O-])CN1CCNCCN(CC(=O)[O-])CCN(CC(=O)[O-])CC1.[Gd+3] [Gd(III)-DO3A] | – | 0.1 | 7 | –
CNC[C@H](O)[C@@H](O)[C@H](O)[C@H](O)CO.O=C([O-])CN1CCN(CC(=O)[O-])CCN(CC(=O)O)CCN(CC(=O)[O-])CC1.[Gd+3] [NMG-Gd-DOTA] | – | 0.1 | 11.2 | –
O=C(O)CN(CCN(CC(=O)O)CC(=O)O)CCN(CC(=O)O)CC(=O)O (Gd complex, metal not drawn) [DTPA, diethylenetriaminepentaacetic acid] | – | – | – | >1
